Series [1] can be described thus: Extraction of acrylic and maleic acid into toluene/butanone mixtures. The settings on record: 0.1M aq solution, equal volume. The class given is physicochemical. Here is the method: (§1) The following experimental conditions were used unless indicated otherwise:— • 0.1M Acids • 1:1 vol:vol aq:solvent • Room Temperature • 1 minutes agitation time; 5 min settling time • Solvent is toluene unless where stated • Analysis by HPLC
In order to increase the solubility of the AA in the organic layer a higher polarity is likely to be required. The extraction of a 0.1M aq AA solution was studied with an equal volume of a mixture between toluene and butanone.

Series [2] can be described thus: Extraction of mono- and dibasic acids from 0.1M aqueous solution into toluene or MMA/toluene mixtures. The settings on record: for degree of extraction: equal volume, in %; for Fraction Transferred to Toluene: each acid 0.1M in water, equal volume of toluene. Format: physicochemical. Here is the method:
as §1
Monobasic and dibasic acids likely to be present in aqueous solution following partial decomposition of mono and dicarboxylic acids expected to be found from decomposition of dibasic or tribasic acids were compared for their solubility in toluene.
Each acid, initially at 0.1M solution in water was separately tested for solubility in an equal volume of toluene.
Aqueous solutions were prepared of each of the dicarboxylic acids exemplified in comparative example 2. These were extracted with an equal volume of solvent mixtures of toluene and methyl methacrylate (MMA).
In order to compare the solubilities in the organic solvents in terms of partition coefficients each sample was converted to a partition coefficient based on the equation: [MAA]solv=K[MAA]^2aq

The conditions of series [3]: 2-butanone:o-xylene 75:25; reported maximum; cited from earlier work.
Series [4] can be described thus: MAA extraction into 2-butanone/o-xylene 75:25. The class given is physicochemical. The settings on record: 2-butanone:o-xylene 75:25. The text has this: The efficiency of MAA extraction into a mixture of 2-butanone and o-xylene in the ratio 75:25 was studied.
Series [5] can be described thus: Solvent screen: transfer of methacrylic acid from aqueous solution into organic solvents. The settings on record: 0.1M MAA aq, 1:1 vol:vol, room temperature. The class given is physicochemical. The method, then: as §1
A series of solvents were tested to examine the extent of transfer of methacrylic acid from an aqueous solution using the above procedure.

Series [6] can be described thus: MAA extraction into toluene with added NaOH and added di/tricarboxylic acids. The class given is physicochemical. The settings on record: for amount of MAA transferred into toluene: 0.1M MAA aq, equivalent volume toluene. Here is the method: The following experimental conditions were used unless indicated otherwise:— • 0.1M Acids • 1:1 vol:vol aq:solvent • Room Temperature • 1 minutes agitation time; 5 min settling time • Solvent is toluene unless where stated • Analysis by HPLC […] The results are shown in the first two rows of table 5 […] Very similar results were obtained. […] The aqueous solution was extracted with an equal volume of toluene at room temperature.

The nature of series [7]: Concentration dependence of MAA extraction into toluene. The class given is physicochemical. The settings on record: toluene/water, fitted to table 3 data. The method, then: as §1
A series of different concentrations of MAA in aqueous solution were extracted into toluene (1:1 by volume vs aqueous solution).
The fraction transferred increases with the concentration of MAA. The data from table 3 were plotted according to the equation: [MAA]tol=K[MAA]^2aq and the value K in the equation was evaluated as 14.6. The results are plotted in FIG. 1.

[8] abbreviates: Fraction of MMA in MMA/Toluene solvent mixture 0.
The mark [9] stands for this setting: Fraction of MMA in MMA/Toluene solvent mixture 0.1.
Setting [10] is: Fraction of MMA in MMA/Toluene solvent mixture 0.2.
Where [11] appears, read: Fraction of MMA in MMA/Toluene solvent mixture 0.3.
[12] abbreviates: Fraction of MMA in MMA/Toluene solvent mixture 0.4.
[13] abbreviates: Fraction of MMA in MMA/Toluene solvent mixture 0.5.
Setting [14] is: Fraction of MMA in MMA/Toluene solvent mixture 0.6.
The mark [15] stands for this setting: Fraction of MMA in MMA/Toluene solvent mixture 0.7.
[16] abbreviates: Fraction of MMA in MMA/Toluene solvent mixture 0.8.
The mark [17] stands for this setting: Fraction of MMA in MMA/Toluene solvent mixture 0.9.
Where [18] appears, read: Fraction of MMA in MMA/Toluene solvent mixture 1.

For `C=CC(=O)O` [Acrylic acid], the “% extracted” value in series [1] (0 % Butanone in toluene) is 5.01%; in series [1] (10 % Butanone in toluene), 14.57%; in series [1] (20 % Butanone in toluene), 25.26%; in series [1] (30 % Butanone in toluene), 35.45%; in series [1] (40 % Butanone in toluene) it was 44.14%; in series [1] (50 % Butanone in toluene) it was 53.47%. Further, the “% extracted” value in series [1] (60 % Butanone in toluene) is recorded as 57.31%; in series [1] (70 % Butanone in toluene), 63.39%; in series [1] (80 % Butanone in toluene), 67.47%; in series [1] (90 % Butanone in toluene), 70.04%; in series [1] (100 % Butanone) it was 65.56%.
On to `C/C=C/C(=O)O` [CT, Crotonic Acid], for which the degree of extraction in series [2] (setting [8]) came out at 40.11; in series [2] (setting [9]), 46.72; in series [2] (setting [10]) it was 49.88; in series [2] (setting [11]) it was 53.62; in series [2] (setting [12]) it was 56.56; in series [2] (setting [13]), 61.15. Moreover, the degree of extraction is 64.67 in series [2] (setting [14]); 68.07 in series [2] (setting [15]); 70.86 in series [2] (setting [16]); 73.21 in series [2] (setting [17]); 75.05 in series [2] (setting [18]). For the same molecule, the “Fraction Transferred to Toluene” value in series [2] worked out at 40.11%.
For `CC(C)(O)C(=O)O` [HIB, Hydroxyisobutyric Acid], the degree of extraction was 4.21 in series [2] (setting [8]); 4.8 in series [2] (setting [9]); 5.14 in series [2] (setting [10]); 6.38 in series [2] (setting [11]); 4.82 in series [2] (setting [12]); 5.76 in series [2] (setting [13]). For the same molecule, the degree of extraction in series [2] (setting [14]) is 7.32; in series [2] (setting [15]) it was 19.71; in series [2] (setting [16]), 21.47; in series [2] (setting [17]), 23.32; in series [2] (setting [18]) it was 23.9. For the same molecule, in series [2], the “Fraction Transferred to Toluene” value was found to be 4.21%.
Consider `C=C(CC(=O)O)C(=O)O` [IC, Itaconic Acid], for which the degree of extraction in series [2] (setting [8]) was 0; in series [2] (setting [9]) it was 0; in series [2] (setting [10]), 0.29; in series [2] (setting [11]) it was 0.81; in series [2] (setting [12]), 1.69; in series [2] (setting [13]), 2.89. In addition, the degree of extraction in series [2] (setting [14]) is on record as 4.34; in series [2] (setting [15]), 6.56; in series [2] (setting [16]) it was 9.57; in series [2] (setting [17]), 13.1; in series [2] (setting [18]), 17.58. For the same molecule, the “Fraction Transferred to Toluene” value in series [2] is on record as 0%.
As for `C=C(C)C(=O)O` [MAA, Methacrylic Acid], the “distribution coefficient for MAA, K” value in series [3] was around 7.00. Moreover, the “MAA extracted into the organic phase” value in series [4] was “roughly 80%”. The “Average % Transfer” value in series [5] (solvent Benzene) is 50.1%; in series [5] (solvent Cyclohexane), 26.9%; in series [5] (solvent Hexane), 27.6%; in series [5] (solvent MMA) it was 84.3%; in series [5] (solvent Mixed Xylenes) it was 45.3%; in series [5] (solvent Pentane) it was 28.3%. Also, the “Average % Transfer” value in series [5] (solvent Toluene) was 48.2%. Also, the degree of extraction in series [2] (setting [8]) worked out at 54.4; in series [2] (setting [9]), 58.85; in series [2] (setting [10]), 63.01; in series [2] (setting [11]), 67.25; in series [2] (setting [12]) it was 70.31; in series [2] (setting [13]), 74.28. In addition, the degree of extraction in series [2] (setting [14]) is 76.77; in series [2] (setting [15]), 79.42; in series [2] (setting [16]) it was 81.42; in series [2] (setting [17]), 83.02; in series [2] (setting [18]), 84.28. Also, the “Fraction Transferred to Toluene” value in series [2] came out at 54.4%. Also, the “MAA extraction into toluene” value in series [6] (0.1M MAA + 0.05M NaOH + itaconic acid to 0.1M) is on record as 44.7%. Further, the “amount of MAA transferred into toluene” value is on record as 26% in series [6] (after addition of 0.05M sodium hydroxide) and 48% in series [6] (before NaOH addition). Also, the “K in [MAA]tol=K[MAA]^2aq” value in series [7] is on record as 14.6.
Turning to `C/C(=C\C(=O)O)C(=O)O` [MC, Mesaconic Acid], the degree of extraction is 0.64 in series [2] (setting [8]); 1.72 in series [2] (setting [9]); 4.5 in series [2] (setting [10]); 8.26 in series [2] (setting [11]); 13.02 in series [2] (setting [12]); 20.56 in series [2] (setting [13]). The degree of extraction in series [2] (setting [14]) is reported as 27.82; in series [2] (setting [15]) it was 38.06; in series [2] (setting [16]), 47.19; in series [2] (setting [17]) it was 56.33; in series [2] (setting [18]) it was 63.45. In addition, the “Fraction Transferred to Toluene” value in series [2] is 0.64%.
For the molecule `O=C(O)/C=C\C(=O)O` [Maleic acid], the “% extracted” value was 0% in series [1] (0 % Butanone in toluene); 0.32% in series [1] (10 % Butanone in toluene); 1.46% in series [1] (20 % Butanone in toluene); 3.41% in series [1] (30 % Butanone in toluene); 5.19% in series [1] (40 % Butanone in toluene); 10.62% in series [1] (50 % Butanone in toluene). Also, the “% extracted” value in series [1] (60 % Butanone in toluene) amounted to 10.77%; in series [1] (70 % Butanone in toluene), 15.01%; in series [1] (80 % Butanone in toluene), 19.88%; in series [1] (90 % Butanone in toluene) it was 27.09%; in series [1] (100 % Butanone) it was 34.32%.
`CC(=O)C(=O)O` [PY, Pyruvic Acid]: the degree of extraction came out at 0 in series [2] (setting [8]); 0 in series [2] (setting [9]); 0.3 in series [2] (setting [10]); 0.7 in series [2] (setting [11]); 1.17 in series [2] (setting [12]); 2.07 in series [2] (setting [13]). For the same molecule, the degree of extraction was 3.01 in series [2] (setting [14]); 4.17 in series [2] (setting [15]); 5.57 in series [2] (setting [16]); 8.05 in series [2] (setting [17]); 10.71 in series [2] (setting [18]). Also, the “Fraction Transferred to Toluene” value in series [2] was determined as 0%.

Source of the values: patent US9890103B2, “Process for the production of (meth)acrylic acid and derivatives and polymers produced therefrom” (Lucite International UK Limited, priority 2011, dated 2018).
